Reference: ChEMBL document CHEMBL3390836, “Mannich- and LedererManasse-based analogues of the natural product S-(+)-curcuphenol as cancer proliferation and migration inhibitors” (Medchemcomm, 2012)

Experiments:
SK-MEL-28 = assay: Cytotoxicity against human SK-MEL-28 cells assessed as cell growth at 10 uM after 48 hrs by SRB assay relative to control; assay type: functional; settings: SK-MEL-28, 48 h, read-out: Activity
CCRF-CEM = assay: Cytotoxicity against human CCRF-CEM cells assessed as cell growth at 10 uM after 48 hrs by SRB assay relative to control; assay type: functional; settings: read-out: Activity
786-0 = assay: Cytotoxicity against human 786-0 cells assessed as cell growth at 10 uM after 48 hrs by SRB assay relative to control; assay type: functional; settings: 786-0, 48 h, read-out: Activity
SNB-19 = assay: Cytotoxicity against human SNB19 cells assessed as cell growth at 10 uM after 48 hrs by SRB assay relative to control; assay type: functional; settings: SNB-19, 48 h, read-out: Activity
[1] = Cytotoxicity against human UACC62 cells assessed as cell growth at 10 uM after 48 hrs by SRB assay relative to control; assay type: functional; settings: UACC-62, 48 h, read-out: Activity
RXF 393 = assay: Cytotoxicity against human RXF393 cells assessed as cell growth at 10 uM after 48 hrs by SRB assay relative to control; assay type: functional; settings: RXF 393, 48 h, read-out: Activity
SW-620 = assay: Cytotoxicity against human SW620 cells assessed as cell growth at 10 uM after 48 hrs by SRB assay relative to control; assay type: functional; settings: SW-620, 48 h, read-out: Activity
NCI-H460 = assay: Cytotoxicity against human NCI-H460 cells assessed as cell growth at 10 uM after 48 hrs by SRB assay relative to control; assay type: functional; settings: NCI-H460, 48 h, read-out: Activity
KM12 = assay: Cytotoxicity against human KM12 cells assessed as cell growth at 10 uM after 48 hrs by SRB assay relative to control; assay type: functional; settings: KM12, 48 h, read-out: Activity
MDA-MB-231 [2] = assay: Growth inhibition of human MDA-MB-231 cells after 72 hrs by MTT assay; assay type: functional, cell-based; settings: MDA-MB-231, 72 h
IGROV-1 = assay: Cytotoxicity against human IGROV1 cells assessed as cell growth at 10 uM after 48 hrs by SRB assay relative to control; assay type: functional; settings: IGROV-1, 48 h, read-out: Activity
[3] = Cytotoxicity against human PC3 cells assessed as cell growth at 10 uM after 48 hrs by SRB assay relative to control; assay type: functional; settings: PC-3, 48 h, read-out: Activity
NCI-H226 = assay: Cytotoxicity against human NCI-H226 cells assessed as cell growth at 10 uM after 48 hrs by SRB assay relative to control; assay type: functional; settings: NCI-H226, 48 h, read-out: Activity
MDA-MB-468 = assay: Cytotoxicity against human MDA-MB-468 cells assessed as cell growth at 10 uM after 48 hrs by SRB assay relative to control; assay type: functional; settings: MDA-MB-468, 48 h, read-out: Activity
NCI-H23 = assay: Cytotoxicity against human NCI-H23 cells assessed as cell growth at 10 uM after 48 hrs by SRB assay relative to control; assay type: functional; settings: NCI-H23, 48 h, read-out: Activity
[4] = Cytotoxicity against human Hs 578T cells assessed as cell growth at 10 uM after 48 hrs by SRB assay relative to control; assay type: functional; settings: read-out: Activity
[5] = Cytotoxicity against human EKVX cells assessed as cell growth at 10 uM after 48 hrs by SRB assay relative to control; assay type: functional; settings: read-out: Activity
[6] = Cytotoxicity against human OVCAR4 cells assessed as cell growth at 10 uM after 48 hrs by SRB assay relative to control; assay type: functional; settings: OVCAR-4, 48 h, read-out: Activity
CAKI-1 = assay: Cytotoxicity against human Caki1 cells assessed as cell growth at 10 uM after 48 hrs by SRB assay relative to control; assay type: functional; settings: CAKI-1, 48 h, read-out: Activity
MCF7 [7] = assay: Growth inhibition of human MCF7 cells after 72 hrs by MTT assay; assay type: functional, cell-based; settings: MCF7, 72 h
HOP-62 = assay: Cytotoxicity against human HOP62 cells assessed as cell growth at 10 uM after 48 hrs by SRB assay relative to control; assay type: functional; settings: HOP-62, 48 h, read-out: Activity
[8] = Cytotoxicity against human UO31 cells assessed as cell growth at 10 uM after 48 hrs by SRB assay relative to control; assay type: functional; settings: UO-31, 48 h, read-out: Activity
K562 = assay: Cytotoxicity against human K562 cells assessed as cell growth at 10 uM after 48 hrs by SRB assay relative to control; assay type: functional; settings: K562, 48 h, read-out: Activity
SN12C = assay: Cytotoxicity against human SN12C cells assessed as cell growth at 10 uM after 48 hrs by SRB assay relative to control; assay type: functional; settings: read-out: Activity
U-251 = assay: Cytotoxicity against human U251 cells assessed as cell growth at 10 uM after 48 hrs by SRB assay relative to control; assay type: functional; settings: U-251, 48 h, read-out: Activity
SF-295 = assay: Cytotoxicity against human SF295 cells assessed as cell growth at 10 uM after 48 hrs by SRB assay relative to control; assay type: functional; settings: SF-295, 48 h, read-out: Activity
MDA-MB-231 [9] = assay: Cytotoxicity against human MDA-MB-231 cells assessed as growth inhibition after 24 hrs by MTT assay; assay type: cell-based; settings: MDA-MB-231, 24 h
SK-MEL-5 = assay: Cytotoxicity against human SK-MEL-5 cells assessed as cell growth at 10 uM after 48 hrs by SRB assay relative to control; assay type: functional; settings: SK-MEL-5, 48 h, read-out: Activity
MDA-MB-435 = assay: Cytotoxicity against human MDA-MB-435 cells assessed as cell growth at 10 uM after 48 hrs by SRB assay relative to control; assay type: functional; settings: MDA-MB-435, 48 h, read-out: Activity
[10] = Cytotoxicity against human NCI-ADR-RES cells assessed as cell growth at 10 uM after 48 hrs by SRB assay relative to control; assay type: functional; settings: read-out: Activity
MCF7 [11] = assay: Cytotoxicity against human MCF7 cells assessed as cell growth at 10 uM after 48 hrs by SRB assay relative to control; assay type: functional; settings: MCF7, 48 h, read-out: Activity
HCC 2998 = assay: Cytotoxicity against human HCC2998 cells assessed as cell growth at 10 uM after 48 hrs by SRB assay relative to control; assay type: functional; settings: HCC 2998, 48 h, read-out: Activity
MDA-MB-231 [12] = assay: Antimigratory activity against human MDA-MB-231 cells after 24 hrs by wound-healing assay; assay type: functional, cell-based; settings: MDA-MB-231, 24 h
SF-539 = assay: Cytotoxicity against human SF539 cells assessed as cell growth at 10 uM after 48 hrs by SRB assay relative to control; assay type: functional; settings: SF-539, 48 h, read-out: Activity
M14 = assay: Cytotoxicity against human M14 cells assessed as cell growth at 10 uM after 48 hrs by SRB assay relative to control; assay type: functional; settings: M14, 48 h, read-out: Activity
SK-MEL-2 = assay: Cytotoxicity against human SK-MEL-2 cells assessed as cell growth at 10 uM after 48 hrs by SRB assay relative to control; assay type: functional; settings: SK-MEL-2, 48 h, read-out: Activity

Row | SMILES | growth at 10 µM (SK-MEL-28) [%] | growth at 10 µM (CCRF-CEM) [%] | growth at 10 µM (786-0) [%] | growth at 10 µM (SNB-19) [%] | growth at 10 µM [1] [%] | growth at 10 µM (RXF 393) [%] | growth at 10 µM (SW-620) [%] | growth at 10 µM (NCI-H460) [%] | growth at 10 µM (KM12) [%] | IC50 (MDA-MB-231 [2]) [µM] | growth at 10 µM (IGROV-1) [%] | growth at 10 µM [3] [%] | growth at 10 µM (NCI-H226) [%] | growth at 10 µM (MDA-MB-468) [%] | growth at 10 µM (NCI-H23) [%] | growth at 10 µM [4] [%] | growth at 10 µM [5] [%] | growth at 10 µM [6] [%] | growth at 10 µM (CAKI-1) [%] | IC50 (MCF7 [7]) [µM] | also measured
1 | CC(C)=CCC[C@H](C)c1ccc(C)c(CNCCCCC(=O)O)c1O | 109 | 97.9 | 100 | 103 | 92.3 | 121 | 98.3 | 105 | 102 | > 50 | 105 | 98 | 91.1 | 100 | 98.8 | 102 | 97.9 | 93.3 | 90.6 | > 20 | growth at 10 µM (HOP-62): 106%; growth at 10 µM [8]: 81.9%; growth at 10 µM (K562): 96.1%; growth at 10 µM (SN12C): 102%; growth at 10 µM (U-251): 98.1%; growth at 10 µM (SF-295): 101%; IC50 (MDA-MB-231 [9]): > 20 µM; growth at 10 µM (SK-MEL-5): 98.4%; growth at 10 µM (MDA-MB-435): 96.1%; growth at 10 µM [10]: 103%; growth at 10 µM (MCF7 [11]): 101%; growth at 10 µM (HCC 2998): 101%; IC50 (MDA-MB-231 [12]): > 20 µM; growth at 10 µM (SF-539): 111%; growth at 10 µM (M14): 113%; growth at 10 µM (SK-MEL-2): 104%
2 | CC(C)=CCC[C@H](C)c1ccc(C)c2c1OCN(CCCCCO)C2 | 115 | 96 | 69.5 | 88.8 | 82.8 | 90.1 | 94.9 | 81.1 | 104 | 5.4 | 90.4 | 68.6 | 98.4 | 90 | 91.3 | 81.2 | 102 | 95.5 | 78.1 | 6.9 | growth at 10 µM (HOP-62): 92.5%; growth at 10 µM [8]: 57%; growth at 10 µM (K562): 31.1%; growth at 10 µM (SN12C): 78.6%; growth at 10 µM (U-251): 83.8%; growth at 10 µM (SF-295): 110%; IC50 (MDA-MB-231 [9]): > 20 µM; growth at 10 µM (SK-MEL-5): 91.7%; growth at 10 µM (MDA-MB-435): 97.1%; growth at 10 µM [10]: 76%; growth at 10 µM (MCF7 [11]): 88.7%; growth at 10 µM (HCC 2998): 73.5%; IC50 (MDA-MB-231 [12]): 10 µM; growth at 10 µM (SF-539): 84.5%; growth at 10 µM (M14): 84.2%; growth at 10 µM (SK-MEL-2): 92.7%
